Target: T1, Akt1 (Homo sapiens, UniProt P31749)
T1 construct: made in house; host or cells: Sf9 insect cells (baculovirus, pBlueBacHis2B)
Assay: Akt1 kinase assay (33P phosphorylation of biotinylated peptide, Flash plates)
Assay type: biochemical
Conditions: assayed at a concentration of 1.1 mcg/mL
Source text: The assay described below measures the phosphorylation of a biotinylated peptide by active recombinant Akt1 and other kinase isoforms. The biotinylated peptide contains a consensus sequence derived from Akt substrate Gsk3 (Glycogen synthase kinase 3). The ^33P-labeled peptide substrate was captured by streptavidin-coated Flash plates.
Active recombinant Akt1 was expressed in Sf9 insect cells and purified as described by Kumar et al., Biochim. Biophys. Acta. Jun. 15, 2001, 1526(3), 257-268. Biotinylated peptide of the sequence Bio-ahx-RPRAASF was purchased from Syn Pep (Dublin, Calif., USA).
Cloning and Expression of Human Akt1 Sf9 Cells
Human Akt1 cDNA was amplified from a marathon-ready human lung cDNA library (Clonetech) using nested oligo primers as described below. The first round of amplification was carried out using the following primers; Akt1F1 ([…]) and Akt1R1 (TCCATC […]) and for the second round amplification, the primers of the following sequence were used; Akt1F2 (GGATCCTCGG […]) and AKT1R2 (GGTACCATCGTC […]). The PCR product was subcloned into pCRScript plasmid as a BamHI/KpnI fragment and the sequence of the cDNA was confirmed by DNA sequencing. This plasmid was used as a template for reamplification of Akt1 using appropriate primers for subcloning into pBlueBaHis2B into BamH1/EcoRI sites to generate an in frame fusion to (His)6 tag and an anti-Xpress antibody epitope tag at the N-terminus. This construct was sequenced to verify the junction sequences and used for generating a recombinant baculovirus. Growth of the recombinant virus, amplification and determination of viral titer were carried out according to the instructions from the manufacturer (InVitrogen, CA).
Purification of Akt1 from Sf9 Cells
Viral stocks were used to infect large scale Sf9 cells at a multiplicity of infection (MOI) of 2.5. Cells were maintained at 27° C. for 60 h and okadaic acid was added to the cultures to a concentration of 50 nM. Cells were harvested 4 h hours later by centrifugation at 1200 rpm for 30 min followed by freezing at −80° C. until further use. All purification steps were carried out at 4° C. Whole cell pellets were suspended in buffer A (20 mM sodium phosphate buffer pH 7.8, 500 mM NaCl, 1 mM sodium vanadate, 5 mM sodium fluoride, 40 mM β-glycerophosphate, 10 mM imidazole and protease inhibitor cocktail) and lysed using a microfluidizer. The cell extract was centrifuged at 16,000×g for 10 min to remove the debris and directly loaded onto Ni-NTA Superflow resin using a FPLC pump operated at 1 ml/min. The column was washed once with buffer A, once with wash buffer B (20 mM sodium phosphate pH 6.0, 1 mM sodium vanadate, 5 mM sodium fluoride and protease cocktail) and once with wash buffer B containing 0.05% Tween-20 followed by washing with buffer A until OD260 returned to basal level. Proteins were eluted with buffer A containing 200 mM imidazole. Fractions were analyzed by electrophoresis on 10% denaturing polyacrylamide gels and fractions containing 85% pure protein band at 60 KDa were pooled and dialyzed against buffer C (20 mM Tris-HCl pH 7.5, 0.5 mM EDTA,-2 mM DTT, 145 mM NaCl, 0.1 mM sodium vanadate, 5 mM sodium fluoride, 10 mM, β-glycerophosphate and 20% glycerol). Purified protein was stored as aliquots at −80° C. Protein concentrations were determined using BCA protein assay reagent A (Catalog #23228). To examine the identity of the proteins, 2 μg of purified protein was electrophoresed on SDS-polyacrylamide gels and stained with coomassie blue dye or transferred to nitrocellulose membrane and probed with anti-Akt and anti-phospho-specific Akt antibodies using enhanced chemiluminescence (ECL) reagent according to the protocol described by the manufacturer (Amersham).
The kinase assay was performed in 96 well plates at room temperature. Assay solutions and plates were preincubated at room temperature for 5 min. […]

T1 sequence (P31749 whole entry): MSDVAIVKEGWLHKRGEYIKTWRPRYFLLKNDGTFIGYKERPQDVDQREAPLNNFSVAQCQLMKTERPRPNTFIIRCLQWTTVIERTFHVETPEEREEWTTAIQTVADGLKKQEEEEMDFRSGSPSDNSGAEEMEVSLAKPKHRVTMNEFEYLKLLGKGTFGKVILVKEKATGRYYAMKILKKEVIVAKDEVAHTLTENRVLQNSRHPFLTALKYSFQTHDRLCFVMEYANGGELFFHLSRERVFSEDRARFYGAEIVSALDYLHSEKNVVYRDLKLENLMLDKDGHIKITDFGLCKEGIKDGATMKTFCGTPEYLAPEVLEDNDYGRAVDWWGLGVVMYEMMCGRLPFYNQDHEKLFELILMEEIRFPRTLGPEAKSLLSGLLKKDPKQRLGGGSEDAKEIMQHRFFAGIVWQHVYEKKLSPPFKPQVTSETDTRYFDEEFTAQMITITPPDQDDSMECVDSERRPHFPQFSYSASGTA

Cc1n[nH]c2ccc(-c3nnc(NCc4ccccc4)c(N4CCNCC4)n3)cc12 [Compound 3, 6-benzylamino-3-(3-methylindazol-5-yl)-5-(piperazin-1-yl)-[1,2,4]triazine] and Cc1n[nH]c2ccc(-c3nnc(NCc4ccccc4)c(N4CCN[C@@H](C(C)C)C4)n3)cc12 [Compound 16, 6-benzylamino-5-[(S)-3-isopropylpiperazin-1-yl]-3-(3-methylindazol-5-yl)-[1,2,4]triazine] cannot be ordered by inhibition at 1.1 µg/mL: > 90% for the first, > 90% for the second.

Cc1n[nH]c2ccc(-c3nnc(N)c(N4CCCNCC4)n3)cc12 [Compound 10, 6-amino-5-([1,4]diazepan-1-yl)-3-(3-methylindazol-5-yl)-[1,2,4]triazine] was tested, and the inhibition at 1.1 µg/mL was > 90%.

Same assay, conditions: read-out: IC50 rating (AKT1 inhibition)

Compared with Cc1n[nH]c2ccc(-c3nnc(N)c(N4CCN[C@@H](C(C)(C)C)C4)n3)cc12 [Compound 81, 6-amino-3-(3-methylindazol-5-yl)-5-[(S)-3-tert-butylpiperazin-1-yl]-[1,2,4]triazine], Cc1n[nH]c2ccc(-c3nnc(N)c(N4CCN[C@H](C)C4)n3)cc12 [Compound 9, 6-amino-3-(3-methylindazol-5-yl)-5-[(R)-3-methylpiperazin-1-yl]-[1,2,4]triazine] is higher in IC50: < 100 nM for the first, > 1000 nM for the second.

Cc1n[nH]c2ccc(-c3nnc(NCc4ccccc4)c(N4CCNCC4)n3)cc12 [Compound 3, 6-benzylamino-3-(3-methylindazol-5-yl)-5-(piperazin-1-yl)-[1,2,4]triazine] and Cc1n[nH]c2ccc(-c3nnc(NCc4ccccc4)c(N4CCN[C@@H](C(C)C)C4)n3)cc12 [Compound 16, 6-benzylamino-5-[(S)-3-isopropylpiperazin-1-yl]-3-(3-methylindazol-5-yl)-[1,2,4]triazine] cannot be ordered by IC50: < 100 nM for the first, < 100 nM for the second.

Compared with Cc1n[nH]c2ccc(-c3nnc(N)c(O)n3)cc12 [Compound 2], Cc1n[nH]c2ccc(-c3nnc(N)c(N4CCCNCC4)n3)cc12 [Compound 10, 6-amino-5-([1,4]diazepan-1-yl)-3-(3-methylindazol-5-yl)-[1,2,4]triazine] is lower in IC50: > 1000 nM for the first, 100 to 1000 nM for the second.

Compared with Cc1n[nH]c2ccc(-c3nnc(Cl)c(N4CCC(N)C4)n3)cc12 (stereo not shown) [Compound 38, 5-(3-aminopyrrolidin-1-yl)-6-chloro-3-(3-methylindazol-5-yl)-[1,2,4]triazine], Cc1n[nH]c2ccc(-c3nnc(Cl)c(N4CCCC(N)C4)n3)cc12 (stereo not shown) [Compound 34, 5-(3-aminopiperidin-1-yl)-6-chloro-3-(3-methylindazol-5-yl)-[1,2,4]triazine] is higher in IC50: < 100 nM for the first, 100 to 1000 nM for the second. The first is the more potent here.

Going from Cc1n[nH]c2ccc(-c3nnc(NCc4ccccc4)c(N4CCN[C@@H](Cc5ccccc5)C4)n3)cc12 [Compound 18, 6-Benzylamino-5-[(S)-3-benzylpiperazin-1-yl]-3-(3-methylindazol-5-yl)-[1,2,4]triazine] to CCC[C@H]1CN(c2nc(-c3ccc4[nH]nc(C)c4c3)nnc2CCc2ccccc2)CCN1 [Compound 94, 3-(3-methylindazol-5-yl)-6-phenethyl-5-[(S)-3-propylpiperazin-1-yl]-[1,2,4]triazine], the IC50 falls from > 1000 nM to < 100 nM.

Going from c1ccc(C[C@H]2CN(c3cnnc(-c4ccc5[nH]ncc5c4)n3)CCN2)cc1 [Compound 55, 5-[(S)-3-benzylpiperazin-1-yl]-3-indazol-5-yl-[1,2,4]triazine] to Nc1n[nH]c2ccc(-c3nncc(N4CCN[C@@H](Cc5ccccc5)C4)n3)cc12 [Compound 67, 3-(3-aminoindazol-5-yl)-5-[(S)-3-benzylpiperazin-1-yl]-[1,2,4]triazine], the IC50 rises from < 100 nM to > 1000 nM. The first is the more potent here.

Compared with Cc1n[nH]c2ccc(-c3nncc(N4CCN5CCCC5C4)n3)cc12 (stereo not shown) [Compound 29, 5-(1,4-diazabicyclo[4.3.0]non-1-yl)-3-(3-methylindazol-5-yl)-[1,2,4]triazine], Cc1n[nH]c2ccc(-c3nncc(N4CCCC(N)C4)n3)cc12 (stereo not shown) [Compound 33, 5-(3-aminopiperidin-1-yl)-3-(3-methylindazol-5-yl)-[1,2,4]triazine] is lower in IC50: > 1000 nM for the first, 100 to 1000 nM for the second.

Compared with CC(C)C[C@H]1CN(c2cnnc(-c3ccc4[nH]nc(-c5ccccc5)c4c3)n2)CCN1 [Compound 72, 5-[(S)-3-isobutylpiperazin-1-yl]-3-(3-phenylindazol-5-yl)-[1,2,4]triazine], c1ccc(C[C@H]2CN(c3cnnc(-c4ccc5[nH]nc(C6CC6)c5c4)n3)CCN2)cc1 [Compound 77, 5-[(S)-3-benzylpiperazin-1-yl]-3-(3-cyclopropylindazol-5-yl)-[1,2,4]triazine] is lower in IC50: > 1000 nM for the first, 100 to 1000 nM for the second. The second is the more potent here.

Compared with Cc1n[nH]c2ccc(-c3nnc(Cl)c(N4CCCC(CN)C4)n3)cc12 (stereo not shown) [Compound 36, 5-(3-aminmethyiopiperidin-1-yl)-6-chloro-3-(3-methylindazol-5-yl)-[1,2,4]triazine], Cc1n[nH]c2ccc(-c3nncc(N4CCNC(Cc5ccc(F)cc5)C4)n3)cc12 (stereo not shown) [Compound 45, 5-[3-(4-fluorobenzyl)piperazin-1-yl]-3-(3-methylindazol-5-yl)-[1,2,4]triazine] is lower in IC50: 100 to 1000 nM for the first, < 100 nM for the second. The second is the more potent here.

c1cc2[nH]nc(C3CC3)c2cc1-c1nncc(N2CCNCC2)n1 [Compound 75, 3-(3-cyclopropylindazol-5-yl)-5-piperazin-1-yl-[1,2,4]triazine] was tested, and the IC50 was > 1000 nM.

— patent US7528132B2, “Kinase inhibitors” (Schering Corporation, priority 2005, dated 2009)
